The term IC50 denotes the point on the concentration scale where inhibition reaches its midpoint.

Structures are written as SMILES. “And” between values parts separate entries of the source, which are not always exact repeats. Equal entries are not always repeated. Where two headings read alike, the source gives them in different places.

Assay [1] addresses T1, HNMT in rat cerebral cortex (Rattus norvegicus, UniProt Q01984).
T1 construct: from tissue; host or cells: cerebral cortex of male Wistar rats
In words: histamine N-methyltransferase activity after sub-chronic administration (radioenzymatic). In kind it is in vivo. To be noted: 3 mg/kg/day s.c. for 6 days. The procedure: (§1) The compound 13 was given to intact Wistar rats to verify its impact on the metabolism of biogenic amines in the brain (cerebral amines and their metabolites concentrations as well as activities of metabolizing enzymes). […] Both drugs (3 mg/kg body mass, dissolved in 0.9% NaCl) were given subcutaneously for 6 consecutive days. Control rats were injected with 200 μL of 0.9% NaCl.
(§2) Tissues were collected and properly prepared for subsequent biochemical analyzes. The brain was quickly removed from the skull and the selected structures (hypothalamus, striatum, cerebral cortex) were dissected according to the method by Glowinsky and Iversen, immediately frozen in liquid nitrogen and kept at −80 °C until assayed.
Histamine N-methyltransferase activity was determined radioenzymatically according to Taylor and Snyder by measurements of radioactive N-tele-methylhistamine formed in a transmethylation reaction catalyzed by the enzyme, as previously described. S-adenosyl-L-(methyl-^14C)-methionine was used as a donor of methyl group.
The enzyme activities are expressed as pmol/min/mg protein. Protein concentration was analyzed by Lowry’s method.

Assay [2] relates to rat brain (cerebral cortex, hypothalamus, striatum) monoamines. In words: HPLC-ED detection of monoamines and metabolites in rat brain tissue after sub-chronic administration. To be noted: for 5-HIAA/5-HT ratio / DOPAC/DA ratio / HVA/DA ratio / MHPG/NA ratio: mean ± SEM. The format is in vivo. The method, then: as §1, §2
The concentration of dopamine (DA), serotonin (5-HT) and noradrenaline (NA) as well as their metabolites, i.e., 3,4-dihydroxyphenylacetic acid (DOPAC), homovanillic acid (HVA), 3-methoxy-4-hydroxyphenylglycol (MHPG) and 5-hydroxyindoleacetic acid (5-HIAA) was determined in striatum (STR), hypothalamus (HPT) and cerebral cortex (CTX) with the RP-HPLC-ED method.
Cerebral samples for HPLC analysis were homogenized using an ultrasonic homogenizer (Fisher BioBlock Scientific, France) for 15 s in 150 μL homogenization solution (0.1 M HClO4 containing 0.4 mM Na2S2O5), and centrifuged at 12,000 rpm for 15 min at 4 °C. At least 100 μL of the supernatant was transferred to chromatographic tubes and kept at –80 °C until analysis. Next, 20 μL of the filtrates was injected into the HPLC system.
The Agilent 1100 chromatographic system with Waters Spherisorb ODS-1 RP C-18 chromatographic column (4.6 × 250 mm) preceded by a Zorbax SB-C18 pre-column (4.6 × 12.5 mm) was used. Column temperature was set at 35 °C and mobile phase flow at 1 mL/min. The glassy carbon working electrode was set at +0.65 V, relative to the Ag/AgCl reference electrode. The mobile phase consisted of a phosphate buffer (3.4 pH) containing: 0.15 M NaH2PO4 x H2O, […] Na2EDTA, 0.5 mM Na2OSA, 0.5 mM LiCl and addition of methanol (10%). The chromatographic data were analyzed using ChemStation, Revision-B.03.02, Agilent software.
The concentrations of monoamines and their metabolites in each sample were calculated from the integrated chromatographic peak area and presented in nmol/gram of wet tissue. Additionally, the ratio of metabolites to their parent amines was calculated.

Assay [3] deals with astrocyte cell line isolated from human cerebral cortex. In words: MTT cell viability test on human astrocytes. In kind it is cell-based. To be noted: Astrocyte, human astrocytes, MTT. The procedure:
The studies were performed on a commercially-available astrocyte cell line isolated from human cerebral cortex (ScienCell Research Laboratories, San Diego, CA, USA; Cat no. 1800). The cells (passage 7–8) were seeded into a 96-well plate at an amount of 10,000 cells/well and kept in accordance with the ScienCell Research Laboratories’ protocol, i.e., in astrocyte medium supplemented with 2% fetal bovine serum, 10% astrocyte growth supplement and 1% penicillin/streptomycin solution, in an atmosphere with 5% CO2 at 37 °C. The cells were allowed to grow for 24 h and then treated with increasing concentrations of test compounds (0.01–0.25 mg/mL) for 24 and 72 h. Astrocytes in the medium on each plate (regardless of the factors tested) were used as a positive control.
The viability of the astrocyte cell line was determined calorimetrically using 3-(4,5-dimethylthazol-2-yl)-2,5-diphenyltetrazolium bromide (MTT; Sigma-Aldrich Chemical Co. Ltd., Saint Louis, MO, USA) as described earlier. […] After the incubation time (24 or 72 h) with examined drugs, 50 μL MTT solution (1 mg/mL) was added to each well of the plate for another 4 h. The method is based on the reduction of a yellow tetrazolium salt (MTT) into purple formazan crystals by mitochondrial succinate-tetrazolium reductase system which is metabolically active in viable cells. At the end of the experiment, the cells were treated with 100 μL dimethyl sulphoxide, which enabled the release of the reaction product.
The absorbance was measured at 570 nm using a BioTek EL×800 microplate reader (BioTek, Winooski, Vermont, USA) and results were expressed as a percentage of the absorbance measured in control cells. The obtained values were plotted against different concentrations of each compound to calculate the viability inhibition concentration at 50% (IC50) using GraphPad Prism 6.07 (GraphPad Software, Inc., San Diego, CA, USA). The experiment was repeated in quadruplicate.
For the cytotoxicity assessment in the MTT assays, each test drug was used at 8 concentrations (range: 0.01–0.25 mg/mL).

The subject of another assay is Wistar rats. In words: feeding behavior (food, water, urine) after sub-chronic administration in metabolic cages. The format is in vivo, rat. To be noted: 3 mg/kg s.c. for 6 days, treatment period value (vs pre-treatment). The method, then: The compound 13 has been examined for its in vivo activity in rats. Male Wistar rats weighing 180–240 g at the beginning of the experiments were used for the study. Animals were individually housed in standard cages with liquid and food available ad libitum, under an artificial reversed 12-h light–dark cycle with light off at 7 a.m., temperature 21–22 °C and 60–65% humidity.
Before the start of the experiments, the animals were habituated for 7 days to the conditions in the animal facility. Pharmacological treatments were carried out in the dark phase of the cycle. During the drug administration, the rats were kept in metabolic cages (Tecniplast, Italy). After an additional one day adaptation, there was a 3-day pre-treatment phase.
as §1
The volumes of consumed food and water, as well as urine excretion, were recorded daily and expressed in g or mL per 100 g of body mass or mL per 24 h, respectively.
The final results are given as means with SEM calculated for each 24-h period, computed from 3-day (pre-treatment phase) or 6-day (pharmacological treatment) monitoring. All experimental procedures were undertaken according to EU directives and local ethical regulations.

Where [4] appears, read: cerebral cortex, 3 mg/kg s.c. for 6 days.
Setting [5] is: not statistically significant, vs control.
Where [6] appears, read: striatum, 3 mg/kg s.c. for 6 days.
The mark [7] stands for this setting: 24 h incubation, read-out: IC50 24 h.
Setting [8] is: 72 h incubation, read-out: IC50 72 h.

T1 sequence (Q01984 whole entry): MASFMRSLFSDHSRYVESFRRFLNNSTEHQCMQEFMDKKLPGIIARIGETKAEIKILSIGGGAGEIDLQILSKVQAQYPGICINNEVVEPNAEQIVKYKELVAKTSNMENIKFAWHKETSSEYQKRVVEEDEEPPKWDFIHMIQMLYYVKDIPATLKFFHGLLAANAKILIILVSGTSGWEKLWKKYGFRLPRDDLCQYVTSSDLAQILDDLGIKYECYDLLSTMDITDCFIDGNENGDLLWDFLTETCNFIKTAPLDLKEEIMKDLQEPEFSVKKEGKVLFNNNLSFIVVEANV

On to `CC1CCCN1CCCOc1ccc(C(C)(C)C)cc1.O=C(O)C(=O)O` (centres unmarked) [Compound 13, 1-(3-(4-(tert-Butyl)phenoxy)propyl)-2-methylpyrrolidine hydrogen oxalate], for which the HNMT activity in assay [1] is on record as 40.09 ± 1.77 pmol/min/mg of protein. Also, in assay [2] (CTX, 3 mg/kg s.c. for 6 days), the 5-HIAA/5-HT ratio is on record as 1.211 ± 0.202, the DOPAC/DA ratio is reported as 0.364 ±0.080 **^,## and the HVA/DA ratio was 0.254 ± 0.015 *^,##. Also, in assay [2] (HPT, 3 mg/kg s.c. for 6 days), the 5-HIAA/5-HT ratio came out at 0.810 ±0.061, the DOPAC/DA ratio is listed as 0.359 ±0.117, the HVA/DA ratio is 0.329 ± 0.091 and the MHPG/NA ratio amounted to 0.205 ±0.030. Besides, in assay [2] (STR, 3 mg/kg s.c. for 6 days), the 5-HIAA/5-HT ratio came to 2.456 ± 0.908, the DOPAC/DA ratio came to 0.207 ± 0.067, the HVA/DA ratio was found to be 0.486 ± 0.388 and the MHPG/NA ratio worked out at 0.329 ± 0.057. For the same compound, in assay [2] (setting [4]), the “5-HIAA level in CTX” value was determined as 1.320 ± 0.153 nmol/g wet tissue, the “5-HT level in CTX” value came out at 1.194 ± 0.139 nmol/g wet tissue, the “DA content in CTX” value was found to be 1.777 ± 0.128 nmol/g wet tissue and the “DOPAC level in CTX” value is recorded as 0.562 ± 0.093 nmol/g wet tissue. Besides, in assay [2] (setting [4]), the “MHPG concentration in CTX” value worked out at 0.897 ± 0.280 nmol/g wet tissue and the “NA concentration in CTX” value is listed as 1.255 ± 0.152 nmol/g wet tissue. Besides, in assay [2] (setting [5]), the “DA concentration in hypothalamus, in words” value is “slight increase” and the “DOPAC concentration in hypothalamus, in words” value is on record as “decrease”. Besides, in assay [2] (setting [6]), the “DA content in STR” value is 9.914 ± 1.718 nmol/g wet tissue and the “DOPAC level in STR” value came to 1.704 ± 0.187 nmol/g wet tissue. Also, in assay [2] (vs control), the “5-HIAA level in hypothalamus, in words” value was “statistically significant decrease”; the “5-HT and 5-HIAA concentrations in the striatum, in words” value is “did not affect”; the “5-HT content in hypothalamus, in words” value is reported as “no changes”; the “NA and MHPG concentration in the other examined brain structures (HPT, STR), in words” value is on record as “no differences were found”. The IC50 in assay [3] (setting [7]) was 230 µM and 84 µg/mL. In assay [3] (setting [8]), the IC50 was 142 µM and 52 µg/mL. In addition, in the assay with Wistar rats, the food consumption came to 8.61 ± 0.11 g/100 g bw, the urine output is listed as 8.90 ± 0.045 mL/24 h and the water consumption is listed as 13.37 ± 0.31 mL/100 g bw/24 h.

For `Clc1ccc(CCCOCCCN2CCCCC2)cc1` [Pitolisant, 3-(4-chlorophenyl)propyl 3-piperidinopropyl ether, reference compound], the HNMT activity in assay [1] is recorded as 42.51 ± 1.40 pmol/min/mg of protein. Further, the “content in brain tissue of the examined biogenic amines and their metabolites compared to control, in words” value in assay [2] (3 mg/kg s.c. for 6 days) is recorded as “did not show any differences”. The IC50 in assay [3] (setting [7]) is 346 µM and 115 µg/mL. The IC50 in assay [3] (setting [8]) is 241 µM and 80 µg/mL. Besides, in the assay on Wistar rats, the food consumption stood at 8.95 ± 0.14 g/100 g bw, the urine output was found to be 9.08 ± 0.49 mL/24 h and the water consumption is 14.16 ± 0.43 mL/100 g bw/24 h.

Values taken from PMC9607599, “Dual Targeting Ligands—Histamine H3 Receptor Ligands with Monoamine Oxidase B Inhibitory Activity—In Vitro and In Vivo Evaluation” (Pharmaceutics, 2022).
